In US4731363A, “Thromboxane synthase inhibitors as insulin lowering agents and antiobesity agents” (priority 1986, dated 1988):
“And” between values parts separate entries of the source, which are not always exact repeats. Identical values can stand only once. Counter-ions that a name gives are not always drawn. Like-named read-outs stand apart in the source and are kept apart here.

Tests used:
[1] = target: T1, thromboxane synthase (Guinea Pig Lung Microsomes) (Cavia porcellus, UniProt H0UT36); experiment: biochemical
T1 construct: The lungs were removed, freed of trachea and the majority of blood removed by rinsing the lungs with buffer; from tissue; host or cells: lungs of male guinea pigs (microsomes, 110,000 g pellet)
T1 sequence (H0UT36 entry or part of it): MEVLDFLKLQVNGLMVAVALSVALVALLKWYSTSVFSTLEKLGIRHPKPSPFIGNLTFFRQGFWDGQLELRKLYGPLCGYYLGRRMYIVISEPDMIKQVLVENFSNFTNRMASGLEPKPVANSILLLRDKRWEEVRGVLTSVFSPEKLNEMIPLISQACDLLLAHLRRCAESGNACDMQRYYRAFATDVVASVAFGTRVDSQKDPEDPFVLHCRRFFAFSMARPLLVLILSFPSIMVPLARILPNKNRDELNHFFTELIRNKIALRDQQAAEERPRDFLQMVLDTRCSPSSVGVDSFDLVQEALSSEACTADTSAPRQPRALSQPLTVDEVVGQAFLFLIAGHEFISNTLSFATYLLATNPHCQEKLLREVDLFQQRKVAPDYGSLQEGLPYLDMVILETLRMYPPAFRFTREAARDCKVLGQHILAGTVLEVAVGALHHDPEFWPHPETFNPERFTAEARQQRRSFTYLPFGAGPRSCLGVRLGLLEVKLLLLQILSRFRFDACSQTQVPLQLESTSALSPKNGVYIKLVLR
Experimental: In said assay procedure, microsomes from guinea pig lung or human platelets are added to an endoperoxide intermediate in prostaglandin biosynthesis and the inhibitor in phosphate buffer solution followed by incubation, extraction and determination of the extent of thromboxane synthase inhibition by TLC with radiochromatographic profile analysis. […]
Isolation of Guinea Pig Lung Microsomes
Four male guinea pigs (.congruent.500 g each) were sacrificed by spinal dislocation. The lungs were removed, freed of trachea and the majority of blood removed by rinsing the lungs with buffer (0.1M phosphate pH 7.5) via the pulmonary artery. The lung tissue (18.3 g total wet wt.), was then minced, suspended in three volumes of buffer and homogenized using, initially, a Brinkmann polytron homogenizer and, finally, a glass-teflon tissue grinder. The homogenate was centrifuged at 12,000 g for 1 hr. and the resultant supernatant recentrifuged at 110,000 g for 1 hr. The 110,000 g pellet was taken up in 10 ml of buffer, divided into 5×2 ml aliquots and stored at -70° until use.
(§1) Low specific activity PGH2 (3.3 μCi/μmole) was obtained from Dr. W. E. M. Lands of the University of Michigan. PGH2 of higher specific activity (16.0 μCi/μmole) was purchased from Ran Biochemicals, Tel-Aviv, Israel.
(§2) The inhibitors tested were prepared as solutions (1-10 mg/ml) in 95% ethanol.
(§3) Assay for Thromboxane Synthase
(§4) To a 12×75 mm tube containing [1-^14 C] PGH2 (2 μg, 0.01 μCi or 0.05 μCi) and inhibitor (1 mM final assay concentration, in 10 μl of ethanol) in 225 μl of phosphate buffer (0.1M, pH 7.5), was added to an aliquot of guinea pig lung microsomes (25 μl, containing 400 μg protein) or an aliquot of human platelet microsomes (25 μl, containing .congruent.[…] protein). The solution was incubated in a 22° water bath for 2 min.; ether (1 ml) and citric acid (25 μMoles) were added, and the tube plunged into an acetone-dry ice bath. The ether extract was transferred to a 1.0 ml Reacti-vial, and the volume reduced under nitrogen to .congruent.50 μl.
(§5) The extract was applied to an I.T.L.C., type SG, glass fiber sheet (Gelman Instrument Co., Ann Arbor, Mich.) and developed in isooctane; methyl ethyl ketone: acetic acid (100:19:1 or 100:9:1) (19). The sheets were air dried and scanned using a Berthold LB 2760 Radiochromatographic Scanner. In certain cases, based on the radiochromatographic profile obtained, the sheets were cut, the appropriate regions placed in scintillation vials, 10 ml of LSC cocktail (Yorktown Research, S. Hackensack, NJ) added, and the relative cpm determined.

[2] = target: T2, thromboxane synthase (Human Platelet Microsomes) (Homo sapiens, UniProt P24557); experiment: Thromboxane synthase inhibition, human platelet microsomes; assay type: biochemical
T2 construct: Platelets were obtained from 320 ml of whole blood and resuspended in 5.0 ml of Krebs-Hensleit buffer; from tissue; host or cells: human platelets (microsomes, 110,000 g pellet)
T2 sequence (P24557 1-533): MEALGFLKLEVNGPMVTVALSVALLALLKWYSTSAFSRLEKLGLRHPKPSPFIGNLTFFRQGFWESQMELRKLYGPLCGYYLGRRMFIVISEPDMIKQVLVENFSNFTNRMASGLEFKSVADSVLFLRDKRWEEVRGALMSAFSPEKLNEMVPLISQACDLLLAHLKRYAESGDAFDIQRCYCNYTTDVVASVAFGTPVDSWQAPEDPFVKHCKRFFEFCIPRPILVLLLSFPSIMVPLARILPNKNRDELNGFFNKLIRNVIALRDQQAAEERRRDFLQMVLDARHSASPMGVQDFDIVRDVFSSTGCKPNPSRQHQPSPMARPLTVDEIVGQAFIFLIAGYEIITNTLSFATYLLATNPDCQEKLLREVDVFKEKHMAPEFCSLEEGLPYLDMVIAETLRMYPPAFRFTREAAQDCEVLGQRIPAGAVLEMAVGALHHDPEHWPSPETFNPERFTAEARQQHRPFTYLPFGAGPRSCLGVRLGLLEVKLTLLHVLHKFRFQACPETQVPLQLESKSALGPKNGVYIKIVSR
Experimental: In said assay procedure, microsomes from guinea pig lung or human platelets are added to an endoperoxide intermediate in prostaglandin biosynthesis and the inhibitor in phosphate buffer solution followed by incubation, extraction and determination of the extent of thromboxane synthase inhibition by TLC with radiochromatographic profile analysis.
(§6) Determination of Inhibition of Thromboxane Synthase Activity Isolation of Human Platelet Microsomes
Platelets were obtained from 320 ml of whole blood and resuspended in 5.0 ml of Krebs-Hensleit buffer (CA^+2 free). After three consecutive freeze-thawing cycles, homogenization and centrifugation at 12,000 g for 45 min., the 12,000 supernatant was recentrifuged at 110,000 g for 60 min. The resultant pellet was resuspended in phosphate buffer (0.5 ml, 0.1M, pH 7.5) and stored at -70° until use.
as §1, §2, §3, §4, §5

TXA2 Synthase = experiment: TXA2 synthase IC50 as listed in Table I (enzyme source not stated); assay type: biochemical
Experimental: as §6, §3, §4, §5

[3] = tested on: isolated perfused rat pancreas; experiment: Insulin secretion by isolated perfused rat pancreas; parameters: key: insulin AUC ratio: 1st glucose pulse / 2nd pulse with compound; details: 10 μM; 16.7 mM glucose; control 1.0 ± 0.04 (n = 5)
Experimental: Determination of Insulin-Secretory Activity in the Isolated Perfused Rat Pancreas
Pancreata were obtained from young adult female Charles River rats weighing from 200-300 g. The animals were anaesthesized with sodium pentobarbitol (45 mg/kg), injected intraperitoneally, and the pancreas with its intact vasculature was removed and connected to an extracorporeal perfusion apparatus.
The basic perfusion solution contained: 133 mM NaCl, 4.4 mM KCl, 2.5 mM MgSO4, 2.4 mM Ca gluconate, 1.5 mM KH2 PO4, 29.4 mM NaHCO3, 4% dextran and 0.2% bovine serum albumin and glucose as discussed below. The perfusion flow rate was kept constant at 4 ml/min. After a 15-20 min equilibration period, the experimental protocol was begun. The pancreatic effluent was collected in either one or four-minute fractions.
The perfusion was run in the following sequence:
30 min 16.7 mM glucose-internal control
30 min 16.7 mM glucose and test compound
5 min 20 mM arginine-to check pancreas viability
Test compounds were dissolved in 90% ethanol to a concentration of 25 mM and then diluted in the perfusion buffer to the desired concentration. The perfusion effluent was collected in one or four min fractions-the samples were checked immediately, aliquoted for submission to radioimmunoassay and stored at -20° C. until the time of assay. The radioimmunoassay of insulin was carried out by a back-titration method using a pure rat insulin standard.
To assess the inhibitory activity of the test compounds, an inhibition index was calculated. The inhibition index is derived by comparing the insulin secretion response from treated versus nontreated pancreas preparations. For each preparation, a ratio of insulin secretion was calculated from the area under the insulin secretion curve of the first pulse of 16.7 mM glucose divided by the area under the curve of the second pulse of 16.7 mM glucose containing compound.

[4] = enzyme source G = Guinea Pig Lung Microsomes, read-out: IC50
[5] = enzyme source H = Human Platelet Microsomes, read-out: IC50
[6] = IC50, enzyme source G = Guinea Pig Lung Microsomes
[7] = IC50, enzyme source H = Human Platelet Microsomes

SMILES | IC50 [1, 4] | IC50 [2, 5] | also measured
O=C1c2ccccc2S(=O)(=O)c2cc(-c3nnn[nH]3)ccc21 [3-(1H-tetrazol-5-yl)-9H-thioxathen-9-one s.s dioxide, reference compound] | > 100 µM and < 1000 µM |  | 
Cn1ccnc1 [1-methyl-1H--imidazole] | > 1000 µM |  | 
COc1ccc(-n2ccnc2)cc1 [1-(4-methoxyphenyl)-1H--imidazole] |  | 10 to 100 µM | 
O=[N+]([O-])c1ccc(-n2ccnc2)c([N+](=O)[O-])c1 [1-[2,4-dinitrophenyl]1H--imidazole] |  |  | IC50 [1, 6]: > 100 µM and < 1000 µM
COc1ccc2c(c1)c(CC(=O)O)c(C)n2C(=O)c1ccc(Cl)cc1 [1-(4-chlorobenzoyl)-5-methoxy-2-methyl-1H--indole-3-acetic acid, reference compound] | > 100 µM and < 1000 µM |  | 
O=[N+]([O-])c1c[nH]cn1 [1H-- 4-nitroimidazole] | > 1000 µM |  | 
COC(=O)C=Cc1c[nH]cn1 [3-(1H--imidazole-4-yl)-2-propenoic acid methyl ester] | > 100 µM and < 1000 µM |  | 
Nc1cncc(C(=O)O)c1 [5-amino-3-pyridinecarboxylic acid] |  |  | IC50 [1, 6]: > 1000 µM
O=C1C(CC[S+]([O-])c2ccccc2)C(=O)N(c2ccccc2)N1c1ccccc1 (centres unmarked) [1,2-diphenyl-4-[2-[phenylsulfinyl]ethyl]-3,5-pyrazo-lidinedione, reference compound] |  |  | IC50 [1, 6]: ~1000 µM
CC(C)(C(=O)c1cccnc1)c1cccnc1 [2-methyl-1,2-di-3-pyridyl-1-propanone tartrate [1:2], reference compound] |  | > 100 µM and < 1000 µM | 
O=[N+]([O-])c1ccc(-n2ccnc2)cc1 [1-(4-nitrophenyl)-1H--imidazole] | > 100 µM and < 1000 µM |  | 
Oc1ccc(-n2ccnc2)cc1 [4-(1H--imidazol-1-yl)phenol, 4-(1H-imidazol-1-yl)phenol] |  | ~1 µM | IC50 (TXA2 Synthase): 1 µM; Insulin Secretion Inhibition Index [3]: 2
O=C(NN=Cc1c(O)ccc2ccccc12)c1cccnc1 [[(2-hydroxy-1-naphthalenyl)methylene]hydrazide 3-pyridinecarboxylic acid] |  | ~100 µM | 
CCn1ccnc1 [1-ethyl-1H--imidazole] |  |  | IC50 [1, 6]: > 1000 µM
Oc1cccc(-n2ccnc2)c1 [3-(1H--imidazol-1-yl)phenol] |  | 1 to 10 µM | 
CCOC(=O)C(=O)Cc1ccncn1 [Alpha-oxo-4-pyrimidinepropanoic acid ethyl ester] |  | > 100 µM and < 1000 µM | 
c1ccc(Cn2ccnc2)cc1 [1-(phenylmethyl)-1H--imidazole] |  |  | IC50 [2, 7]: 10 to 100 µM
c1ccc(-c2ccncn2)cc1 [4-phenylpyrimidine] | ~100 µM |  | 
N[C@@H]1C(=O)N2C(C(=O)O)=C(CSc3ccncn3)CS[C@H]12 [[6R--(6α,7β)]-2-carboxy-8-oxo-3-[(4-pyrimidinylthio)-methyl]5-thia-1-azabicyclo-[4.2.0]oct-2-en-7-aminum hydroxide inner salt] |  | > 100 µM and < 1000 µM | 
CCOc1ccc(-n2ccnc2)cc1 [1-(4-ethoxyphenyl)-1H--imidazole] |  | ~10 µM | 
CCCCn1ccnc1 [1-butyl-1H--imidazole] |  | ~10 µM | 
CC(=O)n1ccnc1 [1-acetyl-1H--imidazole] |  | ~1000 µM | 
Cc1ccc2c(-c3ccccc3)nc(=O)n(C(C)C)c2c1 [7-methyl-1-(1-methylethyl)-4-phenyl-2(1H)-quinazolinone, reference compound] | > 1000 µM |  | 
OC[C@H]1O[C@@H](n2ccnc2)[C@H](O)[C@@H](O)[C@@H]1O [1-(beta-D-glucopyranosyl)-1H--imidazole] |  | 10 to 100 µM | 
Clc1ccccc1C(c1ccccc1)(c1ccccc1)n1ccnc1 [1-[(2-chlorophenyl)diphenylmethyl]-1H--imidazole, reference compound] |  |  | IC50 [2, 7]: 10 to 100 µM
CC(C)Oc1ccc2oc3ccc(C(=O)O)cc3c(=O)c2c1 [7-(1-methylethoxy)-9-oxo-9H-xanthene-2-carboxylic acid] | > 1000 µM | > 1000 µM | 
